target: T1, recombinant human mPGES-1 (Homo sapiens, UniProt O14684); experiment: mPGES-1 inhibition, HTRF detection of PGE2; assay type: biochemical
T1 construct: made in house; host or cells: Rosetta E. coli (microsomal/membrane fraction)
T1 sequence (O14684 1-152): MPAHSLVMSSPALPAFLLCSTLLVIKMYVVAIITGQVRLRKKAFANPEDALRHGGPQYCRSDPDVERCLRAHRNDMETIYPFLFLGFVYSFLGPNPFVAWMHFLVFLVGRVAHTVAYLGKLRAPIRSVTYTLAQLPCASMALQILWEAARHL
Description: Microsomes from Rosetta E. coli bacteria expressing recombinant human mPGES-1 is dissolved in 0.1 M KPi pH 7.4 buffer containing 2.5 mM GSH. 50 μl of the enzyme is subsequently dispensed in a 384-well plate. 0.5 μl of the inhibitor dissolved in DMSO at is thereafter added to each well and incubated for 25 minutes at room temperature. Subsequently, 2 μl of PGH2 dissolved in an appropriate solvent is added to each well and after one minute the acidified stop solution containing FeCl2 is added. 4 μl of the total volume is transferred to a separate plate and diluted 750-fold in two separate steps before HTRF detection of PGE2.
The HTRf detection is performed by the use of a commercially available kit from CisBio essentially according to the manufacturer's protocol. Briefly, 10 μl of the diluted sample is transferred to a white 384-well plate. 5 μl of d2 and 5 μl Eu3+-Cryptate labeled anti-PGE2 is added to each well containing samples by the use of a Multidrop. The plate is covered with a plastic self-adhesive film, centrifuged at 1200 rpm for 1 minute and subsequently stored at +4° C. over night.
After over night incubation the fluorescence is measured by the use of an appropriate microplate reader. The fluorescence of europium cryptate, and d2 are measured using the following excitation and emission wavelength, europium cryptate: λmax^ex=307 nm, λmax^em=620 nm and d2: λmax^ex=620 nm, λmax^em=665 nm), respectively. The extent of the specific FRET is measured as a ratio of the emission intensity at 665 nm vs. that at 620 nm. A standard curve using synthetic PGE2 is used to quantify the amount of PGE2 in unknown samples.

Structure (SMILES) | inhibition at 10 µM [%] | inhibition at 1 µM [%]
CCCC[C@H](C)NC(=O)c1cnc2c(c1)nc(Nc1c(Cl)cccc1Cl)n2C [Example 527, (S)-2-(2,6-Dichlorophenylamino)-N-(hex-2-yl)-3-methyl-3H-imidazo[4,5-b]pyridine-6-carboxamide] | 96 | –
Cn1c(Nc2c(F)cccc2C(F)(F)F)nc2cc(C(=O)Nc3ccc(Br)cc3)c(OCC(F)F)nc21 [Example 771, N-(4-Bromophenyl)-2-(2-fluoro-6-trifluoromethylphenylamino)-5-(2,2-difluoro-ethoxy)-3-methyl-3H-imidazo[4,5-b]pyridine-6-carboxamide] | – | 100
CCCC(CCC)NC(=O)c1cnc2c(c1)nc(Nc1c(Cl)cccc1Cl)n2C [Example 473, 2-(2,6-Dichlorophenylamino)-N-(hept-4-yl)-3-methyl-3H-imidazo[4,5-b]pyridine-6-carboxamide] | 99 | –
O=C(Nc1ccc(Br)cc1)c1cc2nc(Nc3c(Cl)cncc3Cl)[nH]c2nc1OCC(F)(F)F [Example 858, 2-(3,5-Dichloro-pyridin-4-ylamino)-5-(2,2,2-trifluoro-ethoxy)-N-(4-bromo-phenyl)-3H-imidazo[4,5-b]pyridine-6-carboxamide] | 100 | –
Cn1c(Nc2c(Cl)cncc2Cl)nc2cc(C(=O)NCC(F)(F)C(F)(F)C(F)(F)C(F)(F)F)c(OCC(F)F)nc21 [Example 840, 2-(3,5-Dichloro-pyridin-4-ylamino)-5-(2,2-difluoro-ethoxy)-N-(2,2,3,3,4,4,5,5,5-nonafluoropentyl)-3-methyl-3H-imidazo[4,5-b]pyridine-6-carboxamide] | 99 | –
O=C(NC1CCC2(CC1)CC2)c1cnc2[nH]c(Nc3c(Cl)cccc3Cl)nc2c1 [Example 485, 2-(2,6-Dichlorophenylamino)-N-(spiro[2.5]octan-6-yl)-3H-imidazo[4,5-b]pyridine-6-carboxamide] | 98 | –
O=C(N[C@H]1CC[C@H](C(F)(F)F)CC1)c1cc2nc(Nc3cnccc3C(F)(F)F)[nH]c2nc1OCC(F)F [Example 799, 2-(4-Trifluoromethyl-pyridin-3-ylamino)-5-(2,2-difluoro-ethoxy)-N-(trans-4-trifluoromethyl-cyclohexyl)-3H-imidazo[4,5-b]pyridine-6-carboxamide] | 99 | –
O=C(NCc1ncccc1C(F)(F)F)c1cc2nc(Nc3c(Cl)cc(F)cc3Cl)[nH]c2nc1OCC(F)F [Example 826, 2-(2,6-Dichloro-4-fluoro-phenylamino)-5-(2,2-difluoro-ethoxy)-N-((3-trifluoromethyl-pyridin-2-yl)-methyl)-3H-imidazo[4,5-b]pyridine-6-carboxamide] | 100 | –
CCCCCCCCNC(=O)c1cnc2c(c1)nc(Nc1c(Cl)cccc1Cl)n2C [Example 403, 2-(2,6-Dichlorophenylamino)-3-methyl-N-octyl-3H-imidazo[4,5-b]pyridine-6-carboxamide] | 100 | –
O=C(Nc1ccc(Br)cc1)c1cnc2[nH]c(Nc3c(Cl)cccc3Cl)nc2c1 [Example 401, N-(4-Bromophenyl)-2-(2,6-dichlorophenylamino)-3H-imidazo[4,5-b]pyridine-6-carboxamide] | 100 | –
O=C(NCC(F)(F)C(F)(F)C(F)(F)C(F)(F)F)c1cc2nc(Nc3c(Cl)cncc3Cl)[nH]c2nc1OCC(F)F [Example 807, 2-(3,5-Dichloro-pyridin-4-ylamino)-5-(2,2-difluoro-ethoxy)-N-(2,2,3,3,4,4,5,5,5-nonafluoro-pentyl)-3H-imidazo[4,5-b]pyridine-6-carboxamide] | 90 | –
Cn1c(Nc2c(Cl)cncc2Cl)nc2cc(C(=O)NCC(F)(F)C(F)(F)C(F)(F)C(F)(F)F)c(OC3CCOC3)nc21 (stereo not shown) [Example 849, 2-(3,5-Dichloro-pyridin-4-ylamino)-5-(tetrahydrofuran-3-yl-oxy)-N-(2,2,3,3,4,4,5,5,5-nonafluoro-pentyl)-3-methyl-3H-imidazo[4,5-b]pyridine-6-carboxamide] | 98 | –
O=C(NCC(F)(F)C(F)(F)C(F)(F)C(F)(F)F)c1cc2nc(Nc3c(Cl)cncc3Cl)[nH]c2nc1OCC(F)(F)F [Example 854, 2-(3,5-Dichloro-pyridin-4-ylamino)-5-(2,2,2-trifluoro-ethoxy)-N-(2,2,3,3,4,4,5,5,5-nonafluoro-pentyl)-3H-imidazo[4,5-b]pyridine-6-carboxamide] | 96 | –
COc1nc2c(cc1C(=O)Nc1ccc(Br)cc1)nc(Nc1c(Cl)cccc1Cl)n2C [Example 377, N-(4-Bromophenyl)-2-(2,6-dichlorophenylamino)-5-methoxy-3-methyl-3H-imidazo[4,5-b]pyridine-6-carboxamide] | 100 | –

Second part, the compound after the results:

inhibition at 10 µM [%] | inhibition at 1 µM [%] | Structure (SMILES)
100 | – | CCC1CCC(NC(=O)c2cnc3c(c2)nc(Nc2c(Cl)cccc2Cl)n3C)CC1 (stereo not shown) [Example 438, 2-(2,6-Dichlorophenylamino)-N-(4-ethylcyclohexyl)-3-methyl-3H-imidazo[4,5-b]pyridine-6-carboxamide]
100 | – | CC(C)[C@H]1CC[C@H](NC(=O)c2cnc3[nH]c(Nc4c(Cl)cccc4Cl)nc3c2)CC1 [Example 394, 2-(2,6-Dichlorophenylamino)-N-((1r,4r)-4-isopropylcyclohexyl)-3H-imidazo[4,5-b]pyridine-6-carboxamide]
98 | – | O=C(NCc1ccccc1C(F)(F)F)c1cc2nc(Nc3c(Cl)cncc3Cl)[nH]c2nc1OCC(F)F [Example 805, 2-(3,5-Dichloro-pyridin-4-ylamino)-5-(2,2-difluoro-ethoxy)-N-((2-trifluoromethyl-phenyl)-methyl)-3H-imidazo[4,5-b]pyridine-6-carboxamide]
99 | – | Cn1c(Nc2c(Cl)cc(F)cc2Cl)nc2cc(C(=O)Nc3ccc(Br)cc3)c(OCC(F)F)nc21 [Example 818, 2-(2,6-Dichloro-4-fluoro-phenylamino)-5-(2,2-difluoro-ethoxy)-N-(4-bromo-phenyl)-3-methyl-3H-imidazo[4,5-b]pyridine-6-carboxamide]
92 | – | Cc1ccnc(Br)c1Nc1nc2cc(C(=O)N[C@H]3CC[C@H](C(F)(F)F)CC3)c(OCC(F)F)nc2n1C [Example 786, 2-(2-Bromo-4-methyl-pyridin-3-ylamino)-5-(2,2-difluoro-ethoxy)-N-(trans-4-trifluoromethyl-cyclohexyl)-3-methyl-3H-imidazo[4,5-b]pyridine-6-carboxamide]
94 | – | Cn1c(Nc2c(Cl)cncc2Cl)nc2cc(C(=O)N[C@H]3CC[C@H](C(F)(F)F)CC3)c(OCC(F)F)nc21 [Example 838, 2-(3,5-Dichloro-pyridin-4-ylamino)-5-(2,2-difluoro-ethoxy)-N-(trans-4-trifluoromethyl-cyclohexyl)-3-methyl-3H-imidazo[4,5-b]pyridine-6-carboxamide]
98 | – | Cc1ccnc(Br)c1Nc1nc2cc(C(=O)N[C@H]3CC[C@H](C(F)(F)F)CC3)c(OCC(F)F)nc2[nH]1 [Example 795, 2-(2-Bromo-4-methyl-pyridin-3-ylamino)-5-(2,2-difluoro-ethoxy)-N-(trans-4-trifluoromethyl-cyclohexyl)-3H-imidazo[4,5-b]pyridine-6-carboxamide]
94 | – | CCCC[C@@H](C)NC(=O)c1cnc2c(c1)nc(Nc1c(Cl)cccc1Cl)n2C [Example 508, (R)-2-(2,6-Dichlorophenylamino)-N-(hexan-2-yl)-3-methyl-3H-imidazo[4,5-b]pyridine-6-carboxamide]

Source: patent US8703796B2, “3H-imidazo [4, 5-B] pyridine-6-carboxamides as anti-inflammatory agents” (Boehringer Ingelheim International GmbH, priority 2008, dated 2014)
